# Data as given in patent US7863264B2, “Stabilised compositions having antibacterial activity” (Coloplast A/S, priority 2000, dated 2011).
# Legend:
# [1] = Solubility for 1:1 complexes (silver by atomic absorption spectroscopy); conditions: Complex Ag:ligand 1:1; purified water
# Method: The tube is placed on a vortex mixer for 1 h (1500 min^−1) and the tube is centrifuged (3000 min^−1/30 min). The water is decanted off and discarded, and another 10 ml purified water is added. This is repeated 2 times, and after the third centrifugation, the liquid decanted off is filtered (0.22 mm PVDF), preserved with nitric acid and the silver concentration is determined by atomic absorption spectroscopy after appropriate dilution.
# Determination of solubility of complexes of silver with various ligands.
# [2] = UV light stability test (visual and CIE-Lab colour measurement); assay type: physicochemical; parameters: key to Dist. (distance in CIE-Lab colour space): Dist = √(ΔL²+Δa²+Δb²) in CIE-Lab, before vs after UV; conditions: for Visual evaluation of complexes after UV-irradiation: UV lamp 30 minutes, cut off approx. 280 nm; for L2 (CIE-Lab colour coordinate L) / b2 (CIE-Lab colour coordinate b) / a2 (CIE-Lab colour coordinate a): after 30 minutes UV irradiation; for L1 (CIE-Lab colour coordinate L) / b1 (CIE-Lab colour coordinate b) / a1 (CIE-Lab colour coordinate a): before irradiation; for Dist. (distance in CIE-Lab colour space): before vs after 30 minutes UV irradiation
# Method: 1.5 g of complex was placed in a 50 mm Pyrex petri dish. This was covered with a 56 mm Pyrex lid with a UV-cut off at approx. 280 nm and placed 100 mm under a UV lamp (UVASPOT) 400/T 450W metal halide high pressure lamp, Dr. K. Hönle GmbH) for 30 minutes.
# The colour was measured, with a Minolta CR300 colour measurement apparatus (CIE-Lab colour coordinates) before (1) and after (2) irradiation. Measurements were made approx. 1 mm above the complex. The distance in colour-space was calculated using the formula Dist=√{square root over (ΔL^2+Δa^2+Δb^2)}, where “L”, “a”, and “b” are the CIE-Lab Colour Coordinates Solubility for 1:1 Complexes:
# Compounds according to the production in example 4 were assessed for stability against UV-light (wave length >280 nm). Milled powders were spread in a 1 mm thick layer in ordinary petri dishes and illuminated by the UV-light for 30 minutes.
molecule,measurement,setting,value
"CC(=O)N1C(=O)[N-]C(=O)C1(C)C.[Ag+] [Ag/1-acetyl-5,5-dimethyl-hydantoin, Silver 1-acetyl-5,5-dimethyl-hydantoinate]",Solubility,[1],1.100 mg Ag/l
"CC1(C)NC(=O)[N-]C1=O.[Ag+] [Ag/5,5-dimethyl-hydantoin, Silver 5,5-dimethyl-hydantoinate]",Visual evaluation of complexes after UV-irradiation,[2],White/no trace of discolouration
same,L2 (CIE-Lab colour coordinate L),[2],96.84
same,b2 (CIE-Lab colour coordinate b),[2],0.39
same,L1 (CIE-Lab colour coordinate L),[2],94.96
same,b1 (CIE-Lab colour coordinate b),[2],0.12
same,Dist. (distance in CIE-Lab colour space),[2],1.90
"O=C1CNC(=O)[N-]1.[Ag+] [Ag/hydantoin, Silver hydantoinate, reference compound]",Visual evaluation of complexes after UV-irradiation,[2],Dark brown/heavily discoloured
same,L2 (CIE-Lab colour coordinate L),[2],26.03
same,a2 (CIE-Lab colour coordinate a),[2],10.75
same,b2 (CIE-Lab colour coordinate b),[2],12.84
same,L1 (CIE-Lab colour coordinate L),[2],96.67
same,a1 (CIE-Lab colour coordinate a),[2],0.06
same,b1 (CIE-Lab colour coordinate b),[2],2.62
same,Dist. (distance in CIE-Lab colour space),[2],72.17
"Silver 5,5-diethyl-hydantoinate [Ag/5,5-diethyl-hydantoin]",Visual evaluation of complexes after UV-irradiation,[2],White/no trace of discolouration
same,L2 (CIE-Lab colour coordinate L),[2],94.05
same,b2 (CIE-Lab colour coordinate b),[2],2.03
same,L1 (CIE-Lab colour coordinate L),[2],96.76
same,b1 (CIE-Lab colour coordinate b),[2],0.67
same,Dist. (distance in CIE-Lab colour space),[2],3.05
Silver 5-methyl-5-isobutyl-hydantoinate [Ag/5-isobutyl-5-methyl-hydantoin],Visual evaluation of complexes after UV-irradiation,[2],White/no trace of discolouration
same,L2 (CIE-Lab colour coordinate L),[2],92.65
same,b2 (CIE-Lab colour coordinate b),[2],1.74
same,L1 (CIE-Lab colour coordinate L),[2],92.4
same,a1 (CIE-Lab colour coordinate a),[2],0.03
same,b1 (CIE-Lab colour coordinate b),[2],0.42
same,Dist. (distance in CIE-Lab colour space),[2],1.36
"Silver allantoinate [Ag-allantoin 1:1, reference compound]",Visual evaluation of complexes after UV-irradiation,[2],Dark brown/heavily discoloured
same,L2 (CIE-Lab colour coordinate L),[2],32.7
same,a2 (CIE-Lab colour coordinate a),[2],14.71
same,b2 (CIE-Lab colour coordinate b),[2],28.41
same,L1 (CIE-Lab colour coordinate L),[2],92.98
same,b1 (CIE-Lab colour coordinate b),[2],2.3
same,Dist. (distance in CIE-Lab colour space),[2],67.44
same,discolouration of the product,"[2]; complex made according to U.S. Pat. No. 2,336,131, UV test not meaningful",discoloured extremely easily
